{"source": "ChEMBL document CHEMBL2074336", "about": "“Reversal of P-glycoprotein-associated multidrug resistance by ivermectin” (Biochem Pharmacol, 1997)", "assay_type_in_all_cases": "functional, cell membranes, Plasma membrane", "details_in_all_cases": "cem-vlb", "key": {"[1]": {"molecular_target": "T1, ATP-dependent translocase ABCB1 (Homo sapiens, UniProt P08183)", "T1 sequence (P08183 whole entry)": "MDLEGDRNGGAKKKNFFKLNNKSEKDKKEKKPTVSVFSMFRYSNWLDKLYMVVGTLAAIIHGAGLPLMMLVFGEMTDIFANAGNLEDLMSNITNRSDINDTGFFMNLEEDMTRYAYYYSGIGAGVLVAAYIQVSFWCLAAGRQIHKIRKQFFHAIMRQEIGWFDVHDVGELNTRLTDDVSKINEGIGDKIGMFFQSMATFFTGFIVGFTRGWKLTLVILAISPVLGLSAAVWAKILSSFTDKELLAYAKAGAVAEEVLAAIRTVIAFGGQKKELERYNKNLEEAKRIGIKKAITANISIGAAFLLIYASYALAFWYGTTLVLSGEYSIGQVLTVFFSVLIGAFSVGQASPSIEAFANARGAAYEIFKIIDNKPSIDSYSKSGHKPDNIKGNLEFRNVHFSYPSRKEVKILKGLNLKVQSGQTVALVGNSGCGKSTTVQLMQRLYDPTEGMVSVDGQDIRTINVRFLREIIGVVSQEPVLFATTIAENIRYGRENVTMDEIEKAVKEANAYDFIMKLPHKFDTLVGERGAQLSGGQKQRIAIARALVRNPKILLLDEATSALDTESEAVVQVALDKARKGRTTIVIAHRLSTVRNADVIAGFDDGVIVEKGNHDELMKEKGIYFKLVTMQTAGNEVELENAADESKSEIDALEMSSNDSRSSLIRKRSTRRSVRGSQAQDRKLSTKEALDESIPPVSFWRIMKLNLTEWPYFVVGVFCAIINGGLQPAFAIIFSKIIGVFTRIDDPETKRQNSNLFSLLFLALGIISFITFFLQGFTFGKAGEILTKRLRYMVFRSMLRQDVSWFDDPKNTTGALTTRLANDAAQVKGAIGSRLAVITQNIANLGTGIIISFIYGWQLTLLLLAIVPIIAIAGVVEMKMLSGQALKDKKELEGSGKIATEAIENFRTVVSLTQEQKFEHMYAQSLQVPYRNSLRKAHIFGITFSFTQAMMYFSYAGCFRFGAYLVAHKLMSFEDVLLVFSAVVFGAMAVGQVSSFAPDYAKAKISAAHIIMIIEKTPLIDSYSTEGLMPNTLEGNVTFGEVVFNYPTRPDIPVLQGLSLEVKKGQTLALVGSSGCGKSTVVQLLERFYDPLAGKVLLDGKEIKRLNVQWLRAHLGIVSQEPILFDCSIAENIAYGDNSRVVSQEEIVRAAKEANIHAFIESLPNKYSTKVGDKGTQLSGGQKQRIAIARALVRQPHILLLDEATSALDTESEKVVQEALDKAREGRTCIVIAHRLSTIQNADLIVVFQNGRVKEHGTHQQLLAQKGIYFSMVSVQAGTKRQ", "assay": "TP_TRANSPORTER: inhibition of IAAP photoaffinity labelling (IAAP: 0.02 uM, PSC-833: 100-fold molar excess) in plasma membranes from CEM/VLB1.0 cells"}, "[2]": {"molecular_target": "T1, ATP-dependent translocase ABCB1", "assay": "TP_TRANSPORTER: inhibition of Ivermectin binding (IVM: 0.2 uM, Vinblastine: 300-fold molar excess) in plasma membranes from CEM/VLB1.0 cells", "set-up": "scale not given: the % may be the effect or the level left"}, "[3]": {"molecular_target": "T1, ATP-dependent translocase ABCB1", "assay": "TP_TRANSPORTER: inhibition of Vinblastine binding (Vinblastine: 0.2 uM, IVM: 300-fold molar excess) in plasma membranes from CEM/VLB1.0 cells", "set-up": "scale not given: the % may be the effect or the level left"}, "[4]": {"molecular_target": "T1, ATP-dependent translocase ABCB1", "assay": "TP_TRANSPORTER: inhibition of IAAP photoaffinity labelling (IAAP: 0.02 uM, IVM: 100-fold molar excess) in plasma membranes from CEM/VLB1.0 cells", "set-up": "scale not given: the % may be the effect or the level left"}}, "data": [{"compound": "C/C=C/C[C@@H](C)C(=O)[C@H]1C(=O)N[C@@H](C(C)C)C(=O)N(C)CC(=O)N(C)[C@@H](CC(C)C)C(=O)N[C@@H](C(C)C)C(=O)N(C)[C@@H](CC(C)C)C(=O)N[C@@H](C)C(=O)N[C@H](C)C(=O)N(C)[C@@H](CC(C)C)C(=O)N(C)[C@@H](CC(C)C)C(=O)N(C)[C@@H](C(C)C)C(=O)N1C", "note": "[VALSPODAR]", "values": [{"measurement": "Activity", "setting": "[1]", "value": "inhibitor [+]"}]}, {"compound": "CC[C@]1(O)C[C@@H]2CN(CCc3c([nH]c4ccccc34)[C@@](C(=O)OC)(c3cc4c(cc3OC)N(C)[C@H]3[C@@](O)(C(=O)OC)[C@H](OC(C)=O)[C@]5(CC)C=CCN6CC[C@]43[C@@H]65)C2)C1", "note": "[VINBLASTINE]", "values": [{"measurement": "Activity", "setting": "[2]", "value": 44, "unit": "%"}]}, {"compound": "IVERMECTIN", "values": [{"measurement": "Activity", "setting": "[3]", "value": 0, "unit": "%"}, {"measurement": "Activity", "setting": "[4]", "value": 0, "unit": "%"}]}]}
